From patent US20240109972A1, “ANTIBODY AND TAXANE COMBINATION THERAPY” (Genmab A/S, priority 2020, published 2024)

Legend:
[1] = tested on: MC38 mouse colon cancer cells; type: in vivo; conditions: mbsIgG2a-PD-L1×4-1BB 0.5 mg/kg 2QW×3, docetaxel 10 mg/kg QW×3; FIG. 7A
Procedure: MC38 mouse colon cancer cells were cultured in Dulbecco's Modified Eagle Medium supplemented with 10% heat-inactivated fetal bovine serum at 37° C., 5% CO2. MC38 cells were harvested from a cell culture growing in log-phase and quantified.
MC38 cells (1×10^6 tumor cells in 100 μL PBS) were injected subcutaneously in the right lower flank of female C57BL/6 mice (obtained from Vital River Laboratories Research Models and Services; age 6-8 weeks at start of experiment).
Tumor growth was evaluated three times per week using a caliper. Tumor volumes (mm^3) were calculated from caliper measurements as ([length]×[width]^2)/2, where the length is the longest tumor dimension, and the width is the longest tumor dimension perpendicular to the length.
Mice were randomized into groups (n=10/group) with an average tumor volume of 64 mm^3 prior to treatment. […]
The mice were monitored daily for clinical signs of illness. […]

[2] = GEN1046 in combination with docetaxel in metastatic NSCLC subjects, adverse effects; type: in vivo, human
Procedure: Docetaxel was administered at a dose of 55 mg/m^2 or 75 mg/m^2 depending on the number of prior Dose Limiting Toxicities observed. The maximum tested dose of docetaxel was be 75 mg/m^2.
Subjects with a histological or cytological diagnosis of non-squamous NSCLC must not have an EGFR-sensitizing mutation and/or ALK translocation/ROS1 rearrangement. EGFR sensitizing mutations are those mutations that are amenable to treatment with an approved TKI. Documentation of EGFR and ALK status should be available per local assessment.

cervical cancer = conditions: first-line, combined with paclitaxel and platinum (cisplatin or carboplatin) or paclitaxel and topotecan; cited from earlier work

CC(=O)O[C@@]12CO[C@@H]1C[C@H](O)[C@@]1(C)C(=O)[C@H](O)C3=C(C)[C@@H](OC(=O)[C@H](O)[C@@H](NC(=O)OC(C)(C)C)c4ccccc4)C[C@@](O)([C@@H](OC(=O)c4ccccc4)[C@H]21)C3(C)C [Docetaxel, reference compound]
Tumor outgrowth [1]: comparable to the PBS-treated group
Anemia Grade 1, Docetaxel-related ([2]; 55 mg/m^2 Docetaxel + GEN1046): 1
Anemia Grade 2, Docetaxel-related ([2]; 55 mg/m^2 Docetaxel + GEN1046): 2
Anemia Grade 3, Docetaxel-related ([2]; 55 mg/m^2 Docetaxel + GEN1046): 2
Anemia Grade 4, Docetaxel-related ([2]; 55 mg/m^2 Docetaxel + GEN1046): 0
Anemia Grade 5, Docetaxel-related ([2]; 55 mg/m^2 Docetaxel + GEN1046): 0
Blood alkaline phosphatase increase Grade 1, Docetaxel-related ([2]; 55 mg/m^2 Docetaxel + GEN1046): 0
Blood alkaline phosphatase increase Grade 2, Docetaxel-related ([2]; 55 mg/m^2 Docetaxel + GEN1046): 1
Blood alkaline phosphatase increase Grade 3, Docetaxel-related ([2]; 55 mg/m^2 Docetaxel + GEN1046): 1
Blood alkaline phosphatase increase Grade 4, Docetaxel-related ([2]; 55 mg/m^2 Docetaxel + GEN1046): 0
Blood alkaline phosphatase increase Grade 5, Docetaxel-related ([2]; 55 mg/m^2 Docetaxel + GEN1046): 0
Dysgeusia Grade 1, Docetaxel-related ([2]; 55 mg/m^2 Docetaxel + GEN1046): 0
Dysgeusia Grade 2, Docetaxel-related ([2]; 55 mg/m^2 Docetaxel + GEN1046): 1
Dysgeusia Grade 3, Docetaxel-related ([2]; 55 mg/m^2 Docetaxel + GEN1046): 0
Dysgeusia Grade 4, Docetaxel-related ([2]; 55 mg/m^2 Docetaxel + GEN1046): 0
Dysgeusia Grade 5, Docetaxel-related ([2]; 55 mg/m^2 Docetaxel + GEN1046): 0
Fatigue Grade 1, Docetaxel-related ([2]; 55 mg/m^2 Docetaxel + GEN1046): 0
Fatigue Grade 2, Docetaxel-related ([2]; 55 mg/m^2 Docetaxel + GEN1046): 2
Fatigue Grade 3, Docetaxel-related ([2]; 55 mg/m^2 Docetaxel + GEN1046): 1
Fatigue Grade 4, Docetaxel-related ([2]; 55 mg/m^2 Docetaxel + GEN1046): 0
Fatigue Grade 5, Docetaxel-related ([2]; 55 mg/m^2 Docetaxel + GEN1046): 0
Febrile neutropenia Grade 1, Docetaxel-related ([2]; 55 mg/m^2 Docetaxel + GEN1046): 0
Febrile neutropenia Grade 2, Docetaxel-related ([2]; 55 mg/m^2 Docetaxel + GEN1046): 0
Febrile neutropenia Grade 3, Docetaxel-related ([2]; 55 mg/m^2 Docetaxel + GEN1046): 1
Febrile neutropenia Grade 4, Docetaxel-related ([2]; 55 mg/m^2 Docetaxel + GEN1046): 0
Febrile neutropenia Grade 5, Docetaxel-related ([2]; 55 mg/m^2 Docetaxel + GEN1046): 0
Hypokalemia Grade 1, Docetaxel-related ([2]; 55 mg/m^2 Docetaxel + GEN1046): 0
Hypokalemia Grade 2, Docetaxel-related ([2]; 55 mg/m^2 Docetaxel + GEN1046): 1
Hypokalemia Grade 3, Docetaxel-related ([2]; 55 mg/m^2 Docetaxel + GEN1046): 0
Hypokalemia Grade 4, Docetaxel-related ([2]; 55 mg/m^2 Docetaxel + GEN1046): 0
Hypokalemia Grade 5, Docetaxel-related ([2]; 55 mg/m^2 Docetaxel + GEN1046): 0
Hypomagnesaemia Grade 1, Docetaxel-related ([2]; 55 mg/m^2 Docetaxel + GEN1046): 1
Hypomagnesaemia Grade 2, Docetaxel-related ([2]; 55 mg/m^2 Docetaxel + GEN1046): 0
Hypomagnesaemia Grade 3, Docetaxel-related ([2]; 55 mg/m^2 Docetaxel + GEN1046): 0
Hypomagnesaemia Grade 4, Docetaxel-related ([2]; 55 mg/m^2 Docetaxel + GEN1046): 0
Hypomagnesaemia Grade 5, Docetaxel-related ([2]; 55 mg/m^2 Docetaxel + GEN1046): 0
Hyponatremia Grade 1, Docetaxel-related ([2]; 55 mg/m^2 Docetaxel + GEN1046): 1
Hyponatremia Grade 2, Docetaxel-related ([2]; 55 mg/m^2 Docetaxel + GEN1046): 0
Hyponatremia Grade 3, Docetaxel-related ([2]; 55 mg/m^2 Docetaxel + GEN1046): 0
Hyponatremia Grade 4, Docetaxel-related ([2]; 55 mg/m^2 Docetaxel + GEN1046): 0
Hyponatremia Grade 5, Docetaxel-related ([2]; 55 mg/m^2 Docetaxel + GEN1046): 0
Infusion site extravasation Grade 1, Docetaxel-related ([2]; 55 mg/m^2 Docetaxel + GEN1046): 1
Infusion site extravasation Grade 2, Docetaxel-related ([2]; 55 mg/m^2 Docetaxel + GEN1046): 0
Infusion site extravasation Grade 3, Docetaxel-related ([2]; 55 mg/m^2 Docetaxel + GEN1046): 0
Infusion site extravasation Grade 4, Docetaxel-related ([2]; 55 mg/m^2 Docetaxel + GEN1046): 0
Infusion site extravasation Grade 5, Docetaxel-related ([2]; 55 mg/m^2 Docetaxel + GEN1046): 0
Nausea Grade 1, Docetaxel-related ([2]; 55 mg/m^2 Docetaxel + GEN1046): 1
Nausea Grade 2, Docetaxel-related ([2]; 55 mg/m^2 Docetaxel + GEN1046): 0
Nausea Grade 3, Docetaxel-related ([2]; 55 mg/m^2 Docetaxel + GEN1046): 0
Nausea Grade 4, Docetaxel-related ([2]; 55 mg/m^2 Docetaxel + GEN1046): 0
Nausea Grade 5, Docetaxel-related ([2]; 55 mg/m^2 Docetaxel + GEN1046): 0
Neutrophil count decreased Grade 1, Docetaxel-related ([2]; 55 mg/m^2 Docetaxel + GEN1046): 0
Neutrophil count decreased Grade 2, Docetaxel-related ([2]; 55 mg/m^2 Docetaxel + GEN1046): 0
Neutrophil count decreased Grade 3, Docetaxel-related ([2]; 55 mg/m^2 Docetaxel + GEN1046): 0
Neutrophil count decreased Grade 4, Docetaxel-related ([2]; 55 mg/m^2 Docetaxel + GEN1046): 1
Neutrophil count decreased Grade 5, Docetaxel-related ([2]; 55 mg/m^2 Docetaxel + GEN1046): 0
Pyrexia Grade 1, Docetaxel-related ([2]; 55 mg/m^2 Docetaxel + GEN1046): 1
Pyrexia Grade 2, Docetaxel-related ([2]; 55 mg/m^2 Docetaxel + GEN1046): 1
Pyrexia Grade 3, Docetaxel-related ([2]; 55 mg/m^2 Docetaxel + GEN1046): 0
Pyrexia Grade 4, Docetaxel-related ([2]; 55 mg/m^2 Docetaxel + GEN1046): 0
Pyrexia Grade 5, Docetaxel-related ([2]; 55 mg/m^2 Docetaxel + GEN1046): 0
Vomiting Grade 1, Docetaxel-related ([2]; 55 mg/m^2 Docetaxel + GEN1046): 0
Vomiting Grade 2, Docetaxel-related ([2]; 55 mg/m^2 Docetaxel + GEN1046): 2
Vomiting Grade 3, Docetaxel-related ([2]; 55 mg/m^2 Docetaxel + GEN1046): 0
Vomiting Grade 4, Docetaxel-related ([2]; 55 mg/m^2 Docetaxel + GEN1046): 0
Vomiting Grade 5, Docetaxel-related ([2]; 55 mg/m^2 Docetaxel + GEN1046): 0
White blood cell count decreased Grade 1, Docetaxel-related ([2]; 55 mg/m^2 Docetaxel + GEN1046): 0
White blood cell count decreased Grade 2, Docetaxel-related ([2]; 55 mg/m^2 Docetaxel + GEN1046): 0
White blood cell count decreased Grade 3, Docetaxel-related ([2]; 55 mg/m^2 Docetaxel + GEN1046): 0
White blood cell count decreased Grade 4, Docetaxel-related ([2]; 55 mg/m^2 Docetaxel + GEN1046): 1
White blood cell count decreased Grade 5, Docetaxel-related ([2]; 55 mg/m^2 Docetaxel + GEN1046): 0
Anaemia Grade 1, Docetaxel-related ([2]; 75 mg/m^2 Docetaxel + GEN1046): 0
Anaemia Grade 2, Docetaxel-related ([2]; 75 mg/m^2 Docetaxel + GEN1046): 0
Anaemia Grade 3, Docetaxel-related ([2]; 75 mg/m^2 Docetaxel + GEN1046): 1
Anaemia Grade 4, Docetaxel-related ([2]; 75 mg/m^2 Docetaxel + GEN1046): 0
Anaemia Grade 5, Docetaxel-related ([2]; 75 mg/m^2 Docetaxel + GEN1046): 0
Diarrhea Grade 1, Docetaxel-related ([2]; 75 mg/m^2 Docetaxel + GEN1046): 1
Diarrhea Grade 2, Docetaxel-related ([2]; 75 mg/m^2 Docetaxel + GEN1046): 0
Diarrhea Grade 3, Docetaxel-related ([2]; 75 mg/m^2 Docetaxel + GEN1046): 0
Diarrhea Grade 4, Docetaxel-related ([2]; 75 mg/m^2 Docetaxel + GEN1046): 0
Diarrhea Grade 5, Docetaxel-related ([2]; 75 mg/m^2 Docetaxel + GEN1046): 0
Dyspnea Grade 1, Docetaxel-related ([2]; 75 mg/m^2 Docetaxel + GEN1046): 0
Dyspnea Grade 2, Docetaxel-related ([2]; 75 mg/m^2 Docetaxel + GEN1046): 0
Dyspnea Grade 3, Docetaxel-related ([2]; 75 mg/m^2 Docetaxel + GEN1046): 0
Dyspnea Grade 4, Docetaxel-related ([2]; 75 mg/m^2 Docetaxel + GEN1046): 1
Dyspnea Grade 5, Docetaxel-related ([2]; 75 mg/m^2 Docetaxel + GEN1046): 0
Fatigue Grade 1, Docetaxel-related ([2]; 75 mg/m^2 Docetaxel + GEN1046): 1
Fatigue Grade 2, Docetaxel-related ([2]; 75 mg/m^2 Docetaxel + GEN1046): 2
Fatigue Grade 3, Docetaxel-related ([2]; 75 mg/m^2 Docetaxel + GEN1046): 0
Fatigue Grade 4, Docetaxel-related ([2]; 75 mg/m^2 Docetaxel + GEN1046): 0
Fatigue Grade 5, Docetaxel-related ([2]; 75 mg/m^2 Docetaxel + GEN1046): 0
Gastrooesophageal reflux disease Grade 1, Docetaxel-related ([2]; 75 mg/m^2 Docetaxel + GEN1046): 0
Gastrooesophageal reflux disease Grade 2, Docetaxel-related ([2]; 75 mg/m^2 Docetaxel + GEN1046): 1
Gastrooesophageal reflux disease Grade 3, Docetaxel-related ([2]; 75 mg/m^2 Docetaxel + GEN1046): 0
Gastrooesophageal reflux disease Grade 4, Docetaxel-related ([2]; 75 mg/m^2 Docetaxel + GEN1046): 0
Gastrooesophageal reflux disease Grade 5, Docetaxel-related ([2]; 75 mg/m^2 Docetaxel + GEN1046): 0
Hiccups Grade 1, Docetaxel-related ([2]; 75 mg/m^2 Docetaxel + GEN1046): 0
Hiccups Grade 2, Docetaxel-related ([2]; 75 mg/m^2 Docetaxel + GEN1046): 1
Hiccups Grade 3, Docetaxel-related ([2]; 75 mg/m^2 Docetaxel + GEN1046): 0
Hiccups Grade 4, Docetaxel-related ([2]; 75 mg/m^2 Docetaxel + GEN1046): 0
Hiccups Grade 5, Docetaxel-related ([2]; 75 mg/m^2 Docetaxel + GEN1046): 0
Lacrimation increased Grade 1, Docetaxel-related ([2]; 75 mg/m^2 Docetaxel + GEN1046): 1
Lacrimation increased Grade 2, Docetaxel-related ([2]; 75 mg/m^2 Docetaxel + GEN1046): 0
Lacrimation increased Grade 3, Docetaxel-related ([2]; 75 mg/m^2 Docetaxel + GEN1046): 0
Lacrimation increased Grade 4, Docetaxel-related ([2]; 75 mg/m^2 Docetaxel + GEN1046): 0
Lacrimation increased Grade 5, Docetaxel-related ([2]; 75 mg/m^2 Docetaxel + GEN1046): 0
Nausea Grade 1, Docetaxel-related ([2]; 75 mg/m^2 Docetaxel + GEN1046): 1
Nausea Grade 2, Docetaxel-related ([2]; 75 mg/m^2 Docetaxel + GEN1046): 2
Nausea Grade 3, Docetaxel-related ([2]; 75 mg/m^2 Docetaxel + GEN1046): 0
Nausea Grade 4, Docetaxel-related ([2]; 75 mg/m^2 Docetaxel + GEN1046): 0
Nausea Grade 5, Docetaxel-related ([2]; 75 mg/m^2 Docetaxel + GEN1046): 0
Neutrophil count decreased Grade 1, Docetaxel-related ([2]; 75 mg/m^2 Docetaxel + GEN1046): 0
Neutrophil count decreased Grade 2, Docetaxel-related ([2]; 75 mg/m^2 Docetaxel + GEN1046): 0
Neutrophil count decreased Grade 3, Docetaxel-related ([2]; 75 mg/m^2 Docetaxel + GEN1046): 1
Neutrophil count decreased Grade 4, Docetaxel-related ([2]; 75 mg/m^2 Docetaxel + GEN1046): 1
Neutrophil count decreased Grade 5, Docetaxel-related ([2]; 75 mg/m^2 Docetaxel + GEN1046): 0
Not coded: periphery sensory neuropathy Grade 1, Docetaxel-related ([2]; 75 mg/m^2 Docetaxel + GEN1046): 1
Not coded: periphery sensory neuropathy Grade 2, Docetaxel-related ([2]; 75 mg/m^2 Docetaxel + GEN1046): 0
Not coded: periphery sensory neuropathy Grade 3, Docetaxel-related ([2]; 75 mg/m^2 Docetaxel + GEN1046): 0
Not coded: periphery sensory neuropathy Grade 4, Docetaxel-related ([2]; 75 mg/m^2 Docetaxel + GEN1046): 0
Not coded: periphery sensory neuropathy Grade 5, Docetaxel-related ([2]; 75 mg/m^2 Docetaxel + GEN1046): 0
Vomiting Grade 1, Docetaxel-related ([2]; 75 mg/m^2 Docetaxel + GEN1046): 1
Vomiting Grade 2, Docetaxel-related ([2]; 75 mg/m^2 Docetaxel + GEN1046): 0
Vomiting Grade 3, Docetaxel-related ([2]; 75 mg/m^2 Docetaxel + GEN1046): 0
Vomiting Grade 4, Docetaxel-related ([2]; 75 mg/m^2 Docetaxel + GEN1046): 0
Vomiting Grade 5, Docetaxel-related ([2]; 75 mg/m^2 Docetaxel + GEN1046): 0
Hepatotoxicity ([2]; GEN1046 in combination with Docetaxel): No reported drug-related hepatoxicities

bevacizumab
Median OS (cervical cancer): approximately 18 months
ORR (cervical cancer): 48%
